Source: US5587392A, “Azolyl methyl phenyl derivatives having aromatase inhibitory activity” (Mochida Pharmaceutical Co., Ltd., priority 1994, dated 1996)
Like-named read-outs stand apart in the source and are kept apart here.

What was measured:
[1] = related art; cited from earlier work
aromatase from rat ovary = target: T1, aromatase from rat ovary (Rattus norvegicus, UniProt P22443); test: Inhibitory activity on aromatase from rat ovary; assay type: biochemical
T1 construct: Using as an enzyme sample the ovarian microsome fraction from a female rat; from tissue; host or cells: rat ovary, microsome fraction (female rat)
T1 sequence (P22443 1-508): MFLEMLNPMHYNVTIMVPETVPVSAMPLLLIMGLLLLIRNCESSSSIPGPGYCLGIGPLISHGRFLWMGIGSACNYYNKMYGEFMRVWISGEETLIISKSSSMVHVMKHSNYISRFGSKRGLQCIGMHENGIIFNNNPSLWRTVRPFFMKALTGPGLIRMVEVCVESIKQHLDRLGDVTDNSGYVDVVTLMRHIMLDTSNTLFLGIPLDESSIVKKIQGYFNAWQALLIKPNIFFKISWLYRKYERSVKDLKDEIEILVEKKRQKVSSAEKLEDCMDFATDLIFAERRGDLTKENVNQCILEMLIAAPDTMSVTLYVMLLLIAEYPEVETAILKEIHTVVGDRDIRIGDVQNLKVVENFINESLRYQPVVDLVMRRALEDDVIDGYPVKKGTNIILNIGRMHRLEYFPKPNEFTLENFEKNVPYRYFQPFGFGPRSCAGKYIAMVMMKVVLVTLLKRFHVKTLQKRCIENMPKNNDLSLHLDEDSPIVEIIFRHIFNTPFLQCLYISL

plasma estradiol = test: Decreasing activity on blood estrogen (plasma estradiol, PMSG-treated rats); assay type: in vivo, female SD rats; details: Rattus norvegicus, po, 4 hours after dosing, read-out: Ratio in plasma estradiol decrease; for inhibition in vivo at 0.1 mg/kg: 0.1 mg/kg orally; for inhibition in vivo at 0.01 mg/kg: 0.01 mg/kg orally
Protocol: More specifically, pregnant mare serum gonadotropin (PMSG) was subcutaneously administered to female SD rats aged 3 weeks, at a dose of 200 IU/rat. […] Four hours after the dosing of the test compound, blood was sampled, and plasma estradiol was messuered by radioimmunoassay(RIA). The decreasing ratio (%) in plasma estradiol levels was calculated by comparing with control groups.

[2] = system: steroid hormone level in blood; test: Effects on the synthesis of various steroid hormones, compared with the dose lowering blood estrogen; assay type: in vivo, rats; details: 10 mg/kg
corticosterone = test: Effect on plasma levels of corticosterone; assay type: in vivo, male SD rats; details: even at the highest doses (10 mg/kg; CGS 16949A 1 mg/kg)
testosterone = test: Effect on plasma levels of testosterone; assay type: in vivo, male SD rats; details: even at the highest doses (10 mg/kg; CGS 16949A 1 mg/kg)
progesterone = test: Effect on plasma levels of progesterone; assay type: in vivo, male SD rats; details: even at the highest doses (10 mg/kg; CGS 16949A 1 mg/kg)
aromatase = details: related art; cited from earlier work
[3] = system: estrogen-dependent diseases; details: related art; cited from earlier work
[4] = rat ovarian microsomes, 30 nM [1β-3H] androstenedione, pH 7.4, 37° C., 15 minutes, read-out: IC50 value

In the case of `C[C@]12CCC(=O)C(O)=C1CC[C@@H]1[C@@H]2CC[C@]2(C)C(=O)CC[C@@H]12` [4-hydroxyandrostenedione], the “absorption when administered orally” value [1] is listed as “poorly absorbed when administered orally”.

`Clc1ccc(Oc2cccc3ccccc23)c(Cn2ccnc2)c1` [Example 5, 1-[5-chloro-2-(1-naphthyloxy)benzyl]-1H-imidazole] gave an IC50 (aromatase from rat ovary; [4]) of 6 nM.

Compound `Clc1ccc(Oc2ccc3ccccc3c2)c(Cn2ccnc2)c1` [Example 6, 1-[5-Chloro-2-(2-naphthyloxy)benzyl]-1H-imidazole] has an IC50 (aromatase from rat ovary; [4]) of 9.9 nM.

`Cn1nnc2ccc(Oc3ccc(Cl)cc3Cn3ccnc3)cc21` [Example 38, 6-[4-chloro-2-(1H-imidazol-1-ylmethyl)phenoxy]-1-methyl-1H-benzotriazole] showed an IC50 (aromatase from rat ovary; [4]) of 0.4 nM and an inhibition in vivo at 0.1 mg/kg (plasma estradiol) of 44%.

`Clc1ccc(Oc2ccc3[nH]nnc3c2)c(Cn2cncn2)c1` [Example 40, 5-[4-chloro-2-(1H-1,2,4-triazol-1-ylmethyl)phenoxy]-1H-benzotriazole] showed an IC50 (aromatase from rat ovary; [4]) of 0.6 nM.

With `Cn1nnc2ccc(Oc3ccc(Cl)cc3Cn3cncn3)cc21` [Example 41, 6-[4-chloro-2-(1H-1,2,4-triazol-1-ylmethyl)phenoxy]-1-methyl-1H-benzotriazole] the IC50 (aromatase from rat ovary; [4]) was 0.5 nM, the “effect on any steroid hormone level in blood” value [2] was “Neither the compound of Example 41 nor the compound of Example 52 in accordance with the present invention had any effect” and the inhibition in vivo at 0.01 mg/kg (plasma estradiol) was 46%. For the same compound, the inhibition in vivo at 0.1 mg/kg (plasma estradiol) was 70%, the “effect on plasma levels of corticosterone” value (corticosterone) was “neither the compound of Example 41 nor the compound of Example 52 in accordance with the present invention had any effect” and the “effect on plasma levels of testosterone” value (testosterone) was “neither the compound of Example 41 nor the compound of Example 52 in accordance with the present invention had any effect”. For the same compound, the “effect on plasma levels of progesterone” value (progesterone) was “neither the compound of Example 41 nor the compound of Example 52 in accordance with the present invention had any effect”.

Work on `Cn1nnc2ccc(Oc3ccc(Br)cc3Cn3cncn3)cc21` [Example 43, 6-[4-bromo-2-(1H-1,2,4-triazol-1-ylmethyl)phenoxy]-1-methyl-1H-benzotriazole] yielded an IC50 (aromatase from rat ovary; [4]) of 0.3 nM, an inhibition in vivo at 0.01 mg/kg (plasma estradiol) of 41% and an inhibition in vivo at 0.1 mg/kg (plasma estradiol) of 69%.

In the case of `Cn1nnc2ccc(Oc3ccccc3Cn3cncn3)cc21` [Example 44, 1-methyl-6-[2-(1H-1,2,4-triazol-1-ylmethyl)phenoxy]-1H-benzotriazole], the IC50 (aromatase from rat ovary; [4]) is reported as 7.8 nM and the inhibition in vivo at 0.1 mg/kg (plasma estradiol) is reported as 23%.

With `Cn1nnc2ccc(Oc3ccc(F)cc3Cn3cncn3)cc21` [Example 45, 6-[4-Fluoro-2-(1H-1,2,4-triazol-1-ylmethyl)phenoxy]-1-methyl-1H-benzotriazole] the IC50 (aromatase from rat ovary; [4]) was 3.3 nM.

`Cn1nnc2ccc(Oc3ccc(I)cc3Cn3cncn3)cc21` [Example 46, 6-[4-Iodo-2-(1H-1,2,4-triazol-1-ylmethyl)phenoxy]-1-methyl-1H-benzotriazole] showed an IC50 (aromatase from rat ovary; [4]) of 0.4 nM and an inhibition in vivo at 0.01 mg/kg (plasma estradiol) of 36%.

`COc1ccc(Oc2ccc3nnn(C)c3c2)c(Cn2cncn2)c1` [Example 47, 6-[4-Methoxy-2-(1H-1,2,4-triazol-1-ylmethyl)phenoxy]-1-methyl-1H-benzotriazole] showed an IC50 (aromatase from rat ovary; [4]) of 1.6 nM.

In the case of `Cn1nnc2ccc(Oc3ccc(OC(F)(F)F)cc3Cn3cncn3)cc21` [Example 48, 1-Methyl-6-[4-(trifluoromethoxy)-2-(1H-1,2,4-triazol-1-ylmethyl)phenoxy]-1H-benzotriazole], the IC50 (aromatase from rat ovary) is reported as 0.9 nM and the inhibition in vivo at 0.01 mg/kg (plasma estradiol) is reported as 30%.

`Cn1nnc2ccc(Oc3cc(Cl)ccc3Cn3cncn3)cc21` [Example 49, 6-[5-Chloro-2-(1H-1,2,4-triazol-1-ylmethyl)phenoxy]-1-methyl-1H-benzotriazole] gave an IC50 (aromatase from rat ovary; [4]) of 1.5 nM.

In the case of `Cn1nnc2ccc(Oc3ccc([N+](=O)[O-])cc3Cn3cncn3)cc21` [Example 50, 1-methyl-6-[4-nitro-2-(1H-1,2,4-triazol-1-ylmethyl)phenoxy]-1H-benzotriazole], the IC50 (aromatase from rat ovary; [4]) is reported as 0.5 nM and the inhibition in vivo at 0.01 mg/kg (plasma estradiol) is reported as 59%.

`CC(=O)c1ccc(Oc2ccc3nnn(C)c3c2)c(Cn2cncn2)c1` [Example 51, 4-[6-(1-methyl-1H-benzotriazoyloxy)]-3-(1H-1,2,4-triazol-1-ylmethyl)acetophenone] showed an IC50 (aromatase from rat ovary; [4]) of 1.2 nM.

For `Cn1nnc2ccc(Oc3ccc(C#N)cc3Cn3cncn3)cc21` [Example 52, 4-[6-(1-methyl-1H-benzotriazoyloxy)]-3-(1H-1,2,4-triazol-1-ylmethyl)benzonitrile], the IC50 (aromatase from rat ovary; [4]) was 0.4 nM, the “effect on any steroid hormone level in blood” value [2] was “Neither the compound of Example 41 nor the compound of Example 52 in accordance with the present invention had any effect” and the inhibition in vivo at 0.001 mg/kg (plasma estradiol; 0.001 mg/kg orally) was 22%. The inhibition in vivo at 0.01 mg/kg (plasma estradiol) was 77%, the inhibition in vivo at 0.1 mg/kg (plasma estradiol) was 91% and the “effect on plasma levels of corticosterone” value (corticosterone) was “neither the compound of Example 41 nor the compound of Example 52 in accordance with the present invention had any effect”. For the same compound, the “effect on plasma levels of testosterone” value (testosterone) was “neither the compound of Example 41 nor the compound of Example 52 in accordance with the present invention had any effect” and the “effect on plasma levels of progesterone” value (progesterone) was “neither the compound of Example 41 nor the compound of Example 52 in accordance with the present invention had any effect”.

For `Cn1nnc2ccc(Oc3ccc(C=O)cc3Cn3cncn3)cc21` [Example 53, 4-[6-(1-methyl-1H-benzotriazoyloxy)]-3-(1H-1,2,4-triazol-1-ylmethyl)benzaldehyde], the IC50 (aromatase from rat ovary; [4]) was 0.8 nM.

Work on `CCOC(=O)c1ccc(Oc2ccc3nnn(C)c3c2)c(Cn2cncn2)c1` [Example 55, 4-[6-(1-methyl-1H-benzotriazoyloxy) ]-3-(1H-1,2,4-triazol-1-ylmethyl)benzoic acid ethyl ester] yielded an IC50 (aromatase from rat ovary; [4]) of 1.4 nM.

For `C=Cc1ccc(Oc2ccc3nnn(C)c3c2)c(Cn2cncn2)c1` [Example 56], the IC50 (aromatase from rat ovary; [4]) was 0.3 nM.

`C#Cc1ccc(Oc2ccc3nnn(C)c3c2)c(Cn2cncn2)c1` [Example 58, 6-[4-ethynyl-2-(1H-1,2,4-triazol-1-ylmethyl)phenoxy]-1-methyl-1H-benzotriazole] showed an IC50 (aromatase from rat ovary; [4]) of 0.3 nM.

`Cn1nnc2ccc(Oc3ccc(C(F)(F)F)cc3Cn3cncn3)cc21` [Example 64, 6-[2-(1H-1,2,4-triazol-1-ylmethyl)-4-(trifluoromethyl)phenoxy]-1-methyl-1H-benzotriazole] gave an IC50 (aromatase from rat ovary; [4]) of 0.6 nM.

`CCn1nnc2ccc(Oc3ccc(Cl)cc3Cn3cncn3)cc21` [Example 67, 6-[4-chloro-2-(1H-1,2,4-triazol-1-ylmethyl)phenoxy]-1-ethyl-1H-benzotriazole] showed an IC50 (aromatase from rat ovary; [4]) of 0.6 nM.

In the case of `Cn1cnc2ccc(Oc3ccc(Cl)cc3Cn3cncn3)cc21` [Example 68, 6-[4-chloro-2-(1H-1,2,4-triazol-1-ylmethyl)phenoxy]-1-methylbenzimidazole], the IC50 (aromatase from rat ovary; [4]) is reported as 2.6 nM.

`Cn1nnc2ccc(Sc3ccc(Cl)cc3Cn3cncn3)cc21` [Example 71, 6-[4-chloro-2-(1H-1,2,4-triazol-1-ylmethyl)phenylthio]-1-methyl-1H-benzotriazole] showed an IC50 (aromatase from rat ovary; [4]) of 1.2 nM.

`Cn1nnc2ccc(Cc3ccc(Cl)cc3Cn3cncn3)cc21` [Example 79, 6-[4-chloro-2-(1H-1,2,4-triazol-1-ylmethyl)benzyl]-1-methyl-1H-benzotriazole] gave an IC50 (aromatase from rat ovary; [4]) of 0.7 nM.

For `Cn1nnc2ccc(Cc3ccc(C#N)cc3Cn3cncn3)cc21` [Example 80, 4-[(1-methyl-1H-benzotriazole-6-yl)methyl]-3-(1H-1,2,4-triazol-1-ylmethyl)benzonitrile], the IC50 (aromatase from rat ovary; [4]) was 1.9 nM and the inhibition in vivo at 0.1 mg/kg (plasma estradiol) was 49%.

For `Clc1ccccc1C(c1ccccc1)(c1ccccc1)n1ccnc1` [clotrimazole], the aromatase inhibitory action (aromatase) is listed as “have aromatase inhibitory activities as well”.

In the case of `CC(=O)N1CCN(c2ccc(OCC3COC(Cn4ccnc4)(c4ccc(Cl)cc4Cl)O3)cc2)CC1` (centres unmarked) [ketoconazole], the aromatase inhibitory action (aromatase) is listed as “have aromatase inhibitory activities as well”.

In the case of `Clc1ccc(COC(Cn2ccnc2)c2ccc(Cl)cc2Cl)c(Cl)c1` (centres unmarked) [miconazole], the aromatase inhibitory action (aromatase) is given as “have aromatase inhibitory activities as well”.

For `CC/C(=C(\c1ccccc1)c1ccc(OCCN(C)C)cc1)c1ccccc1` [tamoxifen], the therapeutical efficacy [3] is given as “clinically satisfactory effect cannot be brought about from such administration alone”.

In the case of `C[C@]12C=CC(=O)C=C1CC[C@@H]1[C@@H]2CC[C@]2(C)OC(=O)CC[C@@H]12` [testolactone], the “absorption when administered orally” value [1] is given as “poorly absorbed when administered orally” and the therapeutical efficacy [3] is given as “never exerts sufficient therapeutical efficacy”.
